Assay results: patent publication US9408908B2, “Combination adjuvant formulation” (University of Saskatchewan, priority 2008, dated 2016)
“Also recorded” adds a separate entry of the source. No end group written: not given here.

Experiments:
[1] = tested on: human PBMCs and human red blood cells; experiment: Cytotoxicity: LDH release in human PBMCs and haemolysis of human red blood cells
[2] = tested on: human PBMC; experiment: Chemokine induction by host defense peptides in human PBMC (ELISA); type: cell-based
Description: (§1) These peptides were tested for induction of chemokines and cytokines in human PBMCs. Human PBMCs stimulated with 20 and 100 μg/ml of host defense peptides were assessed for various cytokines and chemokines at the 24 hour time-point by ELISA (eBiosciences). […] Subsequently, selected host defense peptides were examined for protective activity in vivo. Briefly, BALB/c mice were administered peptides (8 mg/kg) by i.p. administration 4 h prior to infection. Mice were infected with 8.4×10^7 S. aureus in 5% mucin by i.p. administration. Bacterial counts in the peritoneal lavage were determined in 24 h after the initiation of infection.

[3] = tested on: ΔF from BRSV; experiment: Immunization of mice with BRSV ΔF protein co-formulated with CpG ODN 1826, indolicidin and/or polyphosphazene; type: in vivo, C57BL/6 and Balb/c mice; conditions: overall conclusion
Description: Six- to eight-week-old female C57BL/6 mice (Charles River, Montreal, Quebec) were immunized twice subcutaneously at 3 week intervals with 100 μL of vaccine containing 0.5 μg ΔF from BRSV (a truncated form of the BRSV F protein engineered to lack the transmembrane domain (aa1-522 only), either alone, or co-formulated with CpG oligonucleotide 1826 (CpG ODN), indolicidin (indol), and/or polyphosphazene (PP). CpG ODN, indolicidin and polyphosphazene were given at doses of 10 μg, 20 μg, and 50 μg, respectively. Negative control animals were immunized with buffer (placebo). CpG ODN 1826 ([…]) (SEQ ID NO:8) was provided by Merial (Lyon, France), and contained a phosphorothioate-modified backbone. […]
Statistical analysis was carried out using GraphPad Prism version 5.00 for Windows (GraphPad Software, San Diego, Calif.). Differences between groups were determined using a Mann-Whitney U test.
CpG ODN 1826, indolicidin, and polyphosphazene were examined for their ability to enhance antigen-specific immune responses when administered with the ΔF protein, either alone, or co-formulated with CpG, indolicidin, and/or PP. […] Mice were immunized twice subcutaneously, and serum total anti-ΔF IgG titers were measured after each immunization by ELISA. […]

[4] = tested on: S. aureus; experiment: Protection against S. aureus infection in mice; type: in vivo, BALB/c mice; conditions: 8 mg/kg i.p. 4 h prior to infection; bacterial counts in peritoneal lavage at 24 h
Description: as §1

[5] = tested on: human PBMC; experiment: MCP-1 induction by triple adjuvant formulations (peptide, CpG 10103, PCPP) in human PBMC; type: cell-based; conditions: 24 hours, peptide 40 μg/ml, CpG 20 μg/ml, no PCPP, average of 4 biological replicates
Description: The effect of PCPP addition on chemokine induction by peptide-CpG 10103 complexes was assessed by the induction of MCP-1 in human PBMCs. Briefly, peptide-CpG complexes were formed as previously described and following incubation PCPP, with or without MgCl2 (pH 7.4), was added to the peptide-CpG complexes at various concentrations and incubated for 30 min at 37° C. Following incubation, human PBMCs were stimulated with the various formulations for 24 hours and levels of MCP-1 were measured by ELISA.

[6] = tested on: human PBMCs; experiment: MCP-1 induction by nucleic acid-peptide formulations in human PBMCs; type: cell-based; conditions: human PBMCs 24 hours; coupled with peptide 1002 or 1018; four biological replicates
Description: Chemokine induction by nucleic acid-peptide formulations Direct complex formation between the various nucleic acids and synthetic host defense peptides was verified prior to human PBMC stimulations. For determination of the immunostimulatory activities of various nucleic acids in complex with host defense peptides in vitro, the following experiment was conducted. Various combinations of CpG ODN 10103, non-CpG ODN 5′[…]3′ (SEQ ID NO:13), poly(I:C) and the synthetic host defense peptides 1002 and 1018 were examined for chemokine induction. Briefly, nucleic acids and peptide were co-incubated for 30 min at 37° C. prior to cell stimulations. Human PBMCs were stimulated with the various formulations for 24 hours and levels of MCP-1 were measured by ELISA. Optimal ratios 2:1, 1:1 and 1:2 nucleic acid:host defense peptide (μg/ml:μg/ml) were identified between concentration thresholds of 40 μg/ml and 10 μg/ml. The results were from four biological replicates.

[7] = Effect of indolicidin dose on adjuvant activity with CpG ODN 1826 (unpublished results); type: in vivo; conditions: 20 μg of peptide co-administered with CpG ODN 1826
Excerpt: Adjuvant doses were selected based on previous reports of adjuvanticity of the individual components.

[8] = Cytokine production by indolicidin with CpG ODN (unpublished results)
Excerpt: The combination of indolicidin, however, along with CpG ODN and polyphosphazene enhanced ΔF-specific humoral and cellular immune responses, and generated a Th1 response. […] The combination of all three adjuvants was required for optimal enhancement of the immune response, as well as to shift the resulting anti-ΔF immune response from Th2 to Th1. However the mechanisms of this immune enhancement are unclear. Without being bound by a particular theory, the enhanced immunogenicity and Th1-biasing effect of the combination with all three adjuvants with ΔF could be as a result of the stabilization and prolonged effect of CpG ODN and/or ΔF, and an increased uptake of CpG ODN and ΔF into antigen-presenting cells.

[9] = tested on: human cord blood mononuclear cells; experiment: Peptide activity in human cord blood mononuclear cells; type: cell-based
Description: as §1

[10] = Table 2, JK peptides, human PBMCs, peptide concentration 20 μg/ml
[11] = Table 2, JK peptides, human PBMCs, peptide concentration 100 μg/ml
[12] = human PBMC, peptide concentration 20 μg/ml
[13] = human PBMC, peptide concentration 20 μg/ml, 24 hour, ELISA
[14] = human PBMC, peptide concentration 100 μg/ml
[15] = human PBMC, peptide concentration 100 μg/ml, 24 hour, ELISA
[16] = Table 3, indolicidin derivatives, human PBMCs, peptide concentration 20 (unit not given)
[17] = Table 3, indolicidin derivatives, human PBMCs, peptide concentration 100 (unit not given)

Substance: VRLIVAVRIWRR-NH2 [Peptide 1018]
- cytotoxicity (LDH release in human PBMCs, haemolysis of human red blood cells) [1]: minimal cytotoxicity

Substance: JK6: peptide VQWRRIRVWVIR (SEQ ID NO:7) (JK6)
- Chemokine Induction Gro-α [2, 10]: 254 pg/mL
- Chemokine Induction MCP-1 [2, 10]: 721 pg/mL
- Chemokine Induction Gro-α [2, 11]: 68 pg/mL
- Chemokine Induction MCP-1 [2, 11]: 671 pg/mL

Substance: CpG ODN 1826
- type and enhancement of ΔF-specific immune response [3]: shift towards a Th1 or balanced immune response

Substance: Nisin Z [reference compound]
- Chemokine Induction Gro-α [2, 12]: 62 pg/mL
- Chemokine Induction MCP-1 [2, 13]: 434 pg/mL
- Chemokine Induction Gro-α [2, 14]: 5811 pg/mL
- Chemokine Induction MCP-1 [2, 15]: 7329 pg/mL
- protection in animal challenges against S. aureus [4]: offered protection
- MCP-1 Induction [5]: 47 pg/mL

Substance: polyriboinosinic acid-polyribocytidylic acid [poly(I:C)]
- induction of MCP-1 versus individual components [6]: synergistic induction of MCP-1

Substance: indolicidin [reference compound]
- Chemokine Induction Gro-α [2, 16]: 84 pg/mL
- Chemokine Induction MCP-1 [2, 16]: 245 pg/mL
- Chemokine Induction Gro-α [2, 17]: 846 pg/mL
- Chemokine Induction MCP-1 [2, 17]: 3120 pg/mL
- type and enhancement of ΔF-specific immune response [3]: sustain the type-2 immune response; also recorded: did not appear to be an effective adjuvant
- adjuvant activity and class switching to IgG2a by dose [7]: enhanced antigen-specific immune responses and effected class switching to IgG2a better than when the peptide was administered at a 10-fold higher dose
- production of Th1 cytokines IL-12 and IFN-γ and chemotactic factor MCP-1 [8]: acts synergistically with CpG ODN

Substance: JK4: peptide VQLRRIRVWVIR (SEQ ID NO:5) (JK4)
- Chemokine Induction Gro-α [2, 10]: 245 pg/mL
- Chemokine Induction MCP-1 [2, 10]: 655 pg/mL
- Chemokine Induction Gro-α [2, 11]: 80 pg/mL
- Chemokine Induction MCP-1 [2, 11]: 557 pg/mL

Substance: JK3: peptide VQLRAIRVRVIR (SEQ ID NO:4) (JK3)
- Chemokine Induction Gro-α [2, 10]: 430 pg/mL
- Chemokine Induction MCP-1 [2, 10]: 873 pg/mL
- Chemokine Induction Gro-α [2, 11]: 320 pg/mL
- Chemokine Induction MCP-1 [2, 11]: 747 pg/mL

Substance: VQRWLIVWRIRK [Peptide 1002]
- cytotoxicity (LDH release in human PBMCs, haemolysis of human red blood cells) [1]: minimal cytotoxicity

Substance: JK5: peptide VQWRAIRVRVIR (SEQ ID NO:6) (JK5)
- Chemokine Induction Gro-α [2, 10]: 317 pg/mL
- Chemokine Induction MCP-1 [2, 10]: 673 pg/mL
- Chemokine Induction Gro-α [2, 11]: 123 pg/mL
- Chemokine Induction MCP-1 [2, 11]: 529 pg/mL

Substance: JK1: peptide VFLRRIRVIVIR (SEQ ID NO:2) (JK1)
- Chemokine Induction Gro-α [2, 10]: 377 pg/mL
- Chemokine Induction MCP-1 [2, 10]: 663 pg/mL
- Chemokine Induction Gro-α [2, 11]: 105 pg/mL
- Chemokine Induction MCP-1 [2, 11]: 1226 pg/mL

Substance: HH18: host defense peptide IWVIWRR (SEQ ID NO:21) (HH18)
- Chemokine Induction Gro-α [2, 12]: 865 pg/mL
- Chemokine Induction MCP-3 [2, 12]: 32 pg/mL
- Chemokine Induction MCP-1 [2, 13]: 1111 pg/mL
- Chemokine Induction Gro-α [2, 14]: 2964 pg/mL
- Chemokine Induction MCP-3 [2, 14]: 431 pg/mL
- Chemokine Induction MCP-1 [2, 15]: 9608 pg/mL
- induction of chemokines and cytokines in human PBMCs (ranking in panel) ([2]; panel of 20 HH-class peptides, 20 and 100 μg/ml, 24 hour): most active peptides
- activity in human cord blood mononuclear cells [9]: further confirmed
